In patent US20180346988A1, “ZNF532 FOR DIAGNOSIS AND TREATMENT OF CANCER” (THE BRIGHAM AND WOMEN'S HOSPITAL, INC., priority 2015, published 2018):

How the values were obtained:
Type in all cases: cell-based, human
[1] = tested on: ZNF532 locus; assay: Nascent RNA-seq of transcription at the ZNF532 locus in NMC cell lines; details: NMC cell lines 797 and 1015, in the presence of JQ1
From the text: Transcription is seen in two of the NMC cell lines, 797 and 1015, and is shown to diminish in the presence of JQ1.

[2] = tested on: 24335 cells; assay: Differentiation and proliferation of ZNF532-NUT+ 24335 NMC cells (involucrin/keratin expression, H&E); details: BET inhibitor treatment
Procedure: FIGS. 8A-8B describe experimental data showing differentiation of ZNF532-NUT+24335 cells in response to NUT knockdown or BET inhibitor.
(FIG. 10A) Immunoblot of involucrin expression, a marker of squamous differentiation. (FIG. 10B) H&E showing differentiation as evidenced by formation of cohesive spherical clusters, and marked accumulation of cytoplasm. (FIG. 10C) 500 nM JQ1 BET inhibitor was administered. Dose-response to JQ1 measured by cell titer glo. (FIG. 10D) Effects of ZNF532 and NUT knock down on number of mitoses quantified by immunohistochemistry using anti-histone H3phospho-serine antibody.
The importance of ZNF532 in NMC was underscored by simultaneous discovery of a patient with pulmonary NMC (FIG. 5A) harboring a ZNF532-NUT fusion gene, that was identified by whole transcriptome RNAsequencing (FIG. 5B), and confirmed by cytogenetics, fluorescence in situ hybridization (FISH), RT-PCR, western blotting, and immunofluorescence (FIGS. 5C-5F, 6). The fusion gene is comprised of exon 3 of ZNF532 fused to intron 1 of NUT (FIG. 7). The resulting predicted 1500 amino acid protein includes the N-terminal 778 amino acids of ZNF532, encoding only the first two of eleven zinc fingers and a large unstructured domain, part of intron 1 of NUT, and its remaining exons 2-7 (FIGS. 8A-8B). […]

[3] = tested on: PVT1 RNA; assay: RNA-seq at the MYC locus (PVT1 lncRNA) in 24335 cells; details: JQ1 administered for 4 h prior to RNA collection
Procedure: (FIG. 11A) Localization of ZNF532-NUT and effects on transcription at the MYC locus based on ChIP-seq and RNA-seq. JQ1 was administered for 4 h prior to RNA collection.
Morphologic differentiation is evidenced by accumulation of abundant cytoplasm, enlargement of nuclei and cytoplasm, and formation of cohesive spheres. […] It has been shown that an important function of ZNF532-NUT is to maintain expression of MYC. […] One such megadomain occupies a region proximal to MYC (FIG. 11A). […] Consistent with its role in MYC upregulation, knockdown of ZNF532-NUT leads to decreased MYC protein levels (FIG. 11B).

For `Cc1sc2c(c1C)C(c1ccc(Cl)cc1)=N[C@@H](CC(=O)OC(C)(C)C)c1nnc(C)n1-2` [JQ1, (S)-tert-butyl 2-(4-(4-chlorophenyl)-2,3,9-trimethyl-6H-thieno[3,2-f][1,2,4]triazolo[4,3-a][1,4]diazepin-6-yl)acetate], the “transcription at the ZNF532 locus” value [1] was “diminish”, the “differentiation of 24335 cells (expression of involucrin, marker of terminal squamous differentiation)” value [2] was “results in differentiation” and the “expression of the PVT1 RNA” value [3] was “decreased expression”.
